The text below walks through data of patent US9597314B2, “Beta-lactamylalkanoic acids for treating premenstrual disorders” (AZEVAN PHARMACEUTICALS, INC., priority 2005, dated 2017).

The term Ki denotes the dissociation constant of the complex between target and ligand, obtained from inhibition or displacement. Lower therefore signals tighter binding. As usually defined, the IC50 is the concentration needed to halve the response being measured.

In this experiment the target is V1a (Homo sapiens, UniProt P37288). Kind of experiment: Human vasopression V1a receptor binding assay. On the set-up: host or cells: CHO cells (hV1a cell line), whole adherent cells. The note with it: hV1a cell line (CHO); for Ki: Table 18; for IC50: 1 nM 3H-AVP, Table 17, read-out: V1a Binding Affinity (IC50 (nM)). Here is the method:
Human vasopression V1a receptor binding assay. A cell line expressing the human V1a receptor in CHO cells (henceforth referred to as the hV1a cell line) was obtained from Dr. Michael Brownstein, NIMH, Bethesda, Md., USA. The hV1a cDNA sequence is described by Thibonnier et al., Journal of Biological Chemistry, 269, 3304-3310 (1994), and the expression method was the same as described by Morel et al. (1992). The hV1a cell line was grown in alpha-MEM with 10% fetal bovine serum and 250 ug/ml G418 (Gibco, Grand Island, N.Y., USA). For competitive binding assay, hV1a cells were plated into 6-well culture plate at 1:10 dilution from a confluency flask, and maintained in culture for at least two days. Culture medium was then removed, cells were washed with 2 ml binding buffer (25 mM Hepes, 0.25% BSA, 1×DMEM, PH=7.0). To each well, 990 μl binding buffer containing 1 nM 3H-AVP was added, and followed by 10 μl series diluted Example compounds dissolved in DMSO. […] 100 nM cold AVP (Sigma) was used to assess non-specific binding. Cells were incubated for 45 minutes at 37° C., assay mixture was removed and each well was washed three times with PBS (pH=7.4). 1 ml 2% SDS was added per well and plates were let sit for 30 minutes. The whole content in a well was transferred to a scintillation vial. Each well was rinsed with 0.5 ml PBS which was then added to the corresponding vial. Scintillation fluid (Ecoscint, National Diagnostics, Atlanta, Ga.) was then added at 3 ml per vial. Samples were counted in a liquid scintillation counter (Beckman LS3801). IC50 values were calculated by Prism Curve fitting software.
All of the alkanedioic esters and amides exemplified in the foregoing examples dissolved in DMSO were tested in this assay. Binding curves were generated according to methods described by Thibonnier et al. (1994). [^3H]-AVP was added to the hV1a cell cultures followed by 10 fold dilutions of each test compound.

Where only a bound is given, the exact number is not on record here.

Chain of V1a (P37288 whole entry): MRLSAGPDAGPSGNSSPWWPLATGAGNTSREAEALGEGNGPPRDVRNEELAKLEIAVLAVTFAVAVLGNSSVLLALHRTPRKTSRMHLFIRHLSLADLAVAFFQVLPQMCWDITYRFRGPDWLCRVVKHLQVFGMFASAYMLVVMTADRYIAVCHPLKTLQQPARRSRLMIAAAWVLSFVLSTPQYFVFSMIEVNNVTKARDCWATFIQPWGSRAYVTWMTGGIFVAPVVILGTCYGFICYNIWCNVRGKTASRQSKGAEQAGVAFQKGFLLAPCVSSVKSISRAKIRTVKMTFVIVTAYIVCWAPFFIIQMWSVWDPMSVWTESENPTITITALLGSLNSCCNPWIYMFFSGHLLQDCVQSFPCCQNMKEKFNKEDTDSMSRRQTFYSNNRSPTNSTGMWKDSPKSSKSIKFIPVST

`O=C(NCc1cccc(C(F)(F)F)c1)C(C(=O)N1CCC(N2CCCCC2)CC1)N1C(=O)[C@@H](N2C(=O)OC[C@@H]2c2ccccc2)[C@H]1/C=C/c1ccccc1` (mixture of isomers) [Example 37] had a Ki of 3.39 nM. Same read-out and setting: then `O=C(NCc1cccc(C(F)(F)F)c1)C(C(=O)N1CCN(CCc2ccccc2)CC1)N1C(=O)[C@@H](N2C(=O)OC[C@@H]2c2ccccc2)[C@H]1/C=C/c1ccccc1` (mixture of isomers) [Example 38], with 85 nM; and `O=C(NCc1cccc(C(F)(F)F)c1)C(C(=O)NC1CCN(Cc2ccccc2)CC1)N1C(=O)[C@@H](N2C(=O)OC[C@@H]2c2ccccc2)[C@H]1/C=C/c1ccccc1` (mixture of isomers) [Example 39], with 13.3 nM. Compound `CCCCN1CCN(C(=O)C(C(=O)NCc2cccc(C(F)(F)F)c2)N2C(=O)[C@@H](N3C(=O)OC[C@@H]3c3ccccc3)[C@H]2/C=C/c2ccccc2)CC1` (mixture of isomers) [Example 40] registered an inhibition constant Ki of 6.5 nM. The same measure, in the same setting: then `CC(C)N1CCN(C(=O)C(C(=O)NCc2cccc(C(F)(F)F)c2)N2C(=O)[C@@H](N3C(=O)OC[C@@H]3c3ccccc3)[C@H]2/C=C/c2ccccc2)CC1` (mixture of isomers) [Example 41], with 18.2 nM.

As for `O=C(NCc1cccc(C(F)(F)F)c1)C(C(=O)N1CCC(CCN2CCCCC2)CC1)N1C(=O)[C@@H](N2C(=O)OC[C@@H]2c2ccccc2)[C@H]1/C=C/c1ccccc1` (mixture of isomers) [Example 42A], the IC50 was found to be 1.77 nM and affinity was put at a Ki of 1.17 nM. Compound `O=C(NCc1cccc(C(F)(F)F)c1)C(C(=O)N1CCN(C2CCCCC2)CC1)N1C(=O)[C@@H](N2C(=O)OC[C@@H]2c2ccccc2)[C@H]1/C=C/c1ccccc1` (mixture of isomers) [Example 42] gave a Ki of 26.4 nM. As to `O=C(C(COCc1ccccc1)N1C(=O)[C@@H](N2C(=O)OC[C@@H]2c2ccccc2)[C@H]1/C=C/c1ccccc1)N1CCN(C2CCCCC2)CC1` (mixture of isomers) [Example 232D], the half-inhibitory concentration (IC50) was found to be 2.04 nM and the affinity, expressed as Ki, was 1.25 nM. For `CCCCN1CCN(C(=O)CCC(C(=O)NCc2cccc(C(F)(F)F)c2)N2C(=O)C(N3C(=O)OCC3c3ccccc3)C2C=Cc2ccccc2)CC1` (single isomer, unassigned) [Example 103], the Ki is 0.49 nM. `CC(C)N1CCN(C(=O)CCC(C(=O)NCc2cccc(C(F)(F)F)c2)N2C(=O)C(N3C(=O)OCC3c3ccccc3)C2C=Cc2ccccc2)CC1` (single isomer, unassigned) [Example 104] came in with a Ki of 1.13 nM. For `O=C(NC1CCCc2ccccc21)C(CCC(=O)N1CCN(C2CCCCC2)CC1)N1C(=O)C(N2C(=O)OCC2c2ccccc2)C1C=Cc1ccccc1` (single isomer, unassigned) [Example 214], the IC50 was determined as 1.86 nM and the affinity corresponds to a Ki of 1.14 nM. In the case of `O=C(NC1CCCc2ccccc21)C(CCC(=O)N1CCN(C2CCCCC2)CC1)N1C(=O)C(N2C(=O)OCC2c2ccccc2)C1C=Cc1ccccc1` (single isomer, unassigned) [Example 215], the IC50 was 0.61 nM and affinity was put at a Ki of 0.38 nM. Compound `O=C(C[C@@H](C(=O)NCc1cccc(C(F)(F)F)c1)N1C(=O)[C@@H](N2C(=O)OC[C@@H]2c2ccccc2)[C@H]1/C=C/c1ccccc1)NC1CCN(Cc2ccccc2)CC1` [Example 63] displayed a Ki of 1.13 nM. Same read-out and setting: then `O=C(NCc1cccc(C(F)(F)F)c1)[C@H](CC(=O)N1CCCN(Cc2ccccc2)CC1)N1C(=O)[C@@H](N2C(=O)OC[C@@H]2c2ccccc2)[C@H]1/C=C/c1ccccc1` [Example 82], with 5.12 nM; and `O=C(C[C@@H](C(=O)NCc1cccc(C(F)(F)F)c1)N1C(=O)[C@@H](N2C(=O)OC[C@@H]2c2ccccc2)[C@H]1/C=C/c1ccccc1)N[C@H]1CCN(Cc2ccccc2)C1` [Example 85], with 3.6 nM.

Take `O=C(NCc1cccc(C(F)(F)F)c1)[C@H](CC(=O)N1CCC(CCN2CCCCC2)CC1)N1C(=O)[C@@H](N2C(=O)OC[C@@H]2c2ccccc2)[C@H]1/C=C/c1ccccc1` [Example 86A]: the IC50 was 9.79 nM and affinity was put at a Ki of 6 nM.

For `O=C(NCc1cccc(C(F)(F)F)c1)[C@H](CCC(=O)N1CCN(Cc2ccccc2)CC1)N1C(=O)[C@@H](N2C(=O)OC[C@@H]2c2ccccc2)[C@H]1/C=C/c1ccccc1` [Example 95], the Ki was 1.08 nM. As for `O=C(NCc1cccc(C(F)(F)F)c1)[C@H](CCC(=O)N1CCN(Cc2ccc3c(c2)OCO3)CC1)N1C(=O)[C@@H](N2C(=O)OC[C@@H]2c2ccccc2)[C@H]1/C=C/c1ccccc1` [Example 96], the affinity, expressed as Ki, was 2.66 nM. This Ki is about 2.5-fold higher than that of the compound before. In turn, `O=C(NCc1cccc(C(F)(F)F)c1)[C@H](CCC(=O)N1CCN(CCC2CCCCC2)CC1)N1C(=O)[C@@H](N2C(=O)OC[C@@H]2c2ccccc2)[C@H]1/C=C/c1ccccc1` [Example 111] came in with a Ki of 0.82 nM. Compared with the last compound, the Ki is about 3.2-fold lower. `O=C(NCc1cccc(C(F)(F)F)c1)[C@H](CCC(=O)N1CCN(CCN2CCOCC2)CC1)N1C(=O)[C@@H](N2C(=O)OC[C@@H]2c2ccccc2)[C@H]1/C=C/c1ccccc1` [Example 112]: the affinity corresponds to a Ki of 0.8 nM.

As for `O=C(NCc1cccc(C(F)(F)F)c1)[C@H](CCC(=O)N1CCC(CCN2CCCCC2)CC1)N1C(=O)[C@@H](N2C(=O)OC[C@@H]2c2ccccc2)[C@H]1/C=C/c1ccccc1` [Example 120A], the IC50 was 16.2 nM and the Ki was 9.9 nM.

On to `CCCN1CCN(C(=O)CC[C@@H](C(=O)NCc2cccc(C(F)(F)F)c2)N2C(=O)[C@@H](N3C(=O)OC[C@@H]3c3ccccc3)[C@H]2/C=C/c2ccccc2)CC1` [Example 120B], for which the IC50 was determined as 2.93 nM and the Ki is 1.79 nM. With `O=C(NCc1cccc(C(F)(F)F)c1)[C@H](CCC(=O)N1CCN(CC2CCCCC2)CC1)N1C(=O)[C@@H](N2C(=O)OC[C@@H]2c2ccccc2)[C@H]1/C=C/c1ccccc1` [Example 120], the Ki turned out to be 0.46 nM. As to `O=C(NC1(c2ccccc2)CCCC1)[C@H](CC(=O)N1CCC(N2CCCCC2)CC1)N1C(=O)[C@@H](N2C(=O)OC[C@@H]2c2ccccc2)[C@H]1/C=C/c1ccccc1` [Example 132D], the IC50 was found to be 6.3 nM and the affinity corresponds to a Ki of 3.9 nM. With `O=C(NCc1cccc(C(F)(F)F)c1)[C@@H](CC(=O)N1CCC(CCN2CCCCC2)CC1)N1C(=O)[C@@H](N2C(=O)OC[C@@H]2c2ccccc2)[C@H]1/C=C/c1ccccc1` [Example 134A], the IC50 came to 12.9 nM and affinity was put at a Ki of 7.9 nM. Taken in the same sequence, the figures for `O=C(C[C@H](C(=O)NCc1cccc(C(F)(F)F)c1)N1C(=O)[C@@H](N2C(=O)OC[C@@H]2c2ccccc2)[C@H]1/C=C/c1ccccc1)NC1CCN(Cc2ccccc2)CC1` [Example 134C] were 9.1 nM and 5.58 nM. As for `O=C(NCc1cccc(C(F)(F)F)c1)[C@@H](CC(=O)N1CCC(CN2CCCCC2)CC1)N1C(=O)[C@@H](N2C(=O)OC[C@@H]2c2ccccc2)[C@H]1/C=C/c1ccccc1` [Example 134G], the IC50 is 6 nM and the Ki is 3.7 nM.

For the compound `CC(C)(NC(=O)[C@@H](CC(=O)N1CCC(N2CCCCC2)CC1)N1C(=O)[C@@H](N2C(=O)OC[C@@H]2c2ccccc2)[C@H]1/C=C/c1ccccc1)c1ccccc1` [Example 134J], the IC50 stood at 5.29 nM and affinity was put at a Ki of 3.25 nM.

As for `O=C(NCc1cccc(C(F)(F)F)c1)[C@@H](CCC(=O)N1CCN(CCc2ccccc2)CC1)N1C(=O)[C@@H](N2C(=O)OC[C@@H]2c2ccccc2)[C@H]1/C=C/c1ccccc1` [Example 136], the Ki was 33 nM. In other words, the double-digit nanomolar range. The same measure, in the same setting: as for `CCCCN1CCN(C(=O)CC[C@H](C(=O)NCc2cccc(C(F)(F)F)c2)N2C(=O)[C@@H](N3C(=O)OC[C@@H]3c3ccccc3)[C@H]2/C=C/c2ccccc2)CC1` [Example 137], the figure is 10.5 nM. As for `CC(C)N1CCN(C(=O)CC[C@H](C(=O)NCc2cccc(C(F)(F)F)c2)N2C(=O)[C@@H](N3C(=O)OC[C@@H]3c3ccccc3)[C@H]2/C=C/c2ccccc2)CC1` [Example 138], the Ki was 13 nM. This Ki and that of the compound before are within 1.5-fold of each other. `O=C(NCc1cccc(C(F)(F)F)c1)[C@@H](CCC(=O)N1CCN(C2CCCCC2)CC1)N1C(=O)[C@@H](N2C(=O)OC[C@@H]2c2ccccc2)[C@H]1/C=C/c1ccccc1` [Example 139] displayed a Ki of 5.84 nM. As to `O=C(NCc1cccc(OC(F)(F)F)c1)[C@H](CCC(=O)N1CCN(C2CCCCC2)CC1)N1C(=O)[C@@H](N2C(=O)OC[C@@H]2c2ccccc2)[C@H]1/C=C/c1ccccc1` [Example 172], the IC50 was found to be 4.5 nM and the Ki turned out to be 2.78 nM. For the compound `O=C(NCc1ccc(Cl)c(Cl)c1)[C@H](CCC(=O)N1CCN(C2CCCCC2)CC1)N1C(=O)[C@@H](N2C(=O)OC[C@@H]2c2ccccc2)[C@H]1/C=C/c1ccccc1` [Example 173], the IC50 was under 100 nM.
